Results published in US20200261391A1, “METHODS OF REDUCING THE RISK OF A CARDIOVASCULAR EVENT IN A STATIN-TREATED SUBJECT BY INCREASING SERUM AND PLASMA EPA AND DPA LEVELS” (Amarin Pharmaceuticals Ireland Limited, priority 2019, published 2020).

Columns and labels:
Format in all cases: in vivo, human
[1] = tested on: patients with elevated triglyceride levels on statin therapy; assay: REDUCE-IT total (first and subsequent) ischemic events (Example 3; negative binomial, Wei-Lin-Weissfeld, Andersen-Gill, joint frailty models); parameters: total (first and subsequent) ischemic events for primary composite endpoint, relative risk reduction / first events, reduction / second events, reduction / third events, reduction / fourth or more events, reduction: concentration or dose not given beside the values; details: for HR (95% CI), Key Secondary Composite Endpoint / HR (95% CI), Primary Composite Endpoint / RR (95% CI), Key Secondary Composite Endpoint, total events / RR (95% CI), Primary Composite Endpoint, total events: full dataset; for RR (95% CI), Key Secondary Composite Endpoint, total events / RR (95% CI), Primary Composite Endpoint, total events: icosapent ethyl vs placebo
From the text: The following study was a multi-center, placebo-controlled clinical trial the details of which are described above in Example 1, the REDUCE-IT design. […] The main outcomes were total primary composite endpoint events defined as cardiovascular death, nonfatal myocardial infarction, nonfatal stroke, coronary revascularization, or hospitalization for unstable angina and total key secondary composite endpoint events defined as cardiovascular death, nonfatal myocardial infarction, or nonfatal stroke. In the context of this study, total events refer to any first event as well as any subsequent event. Differences in total events were determined using other statistical models, including Andersen-Gill, Wei-Lin-Weisfeld (Li and Lagakos), both pre-specified, and a post hoc and joint-frailty analysis.
For the present prespecified analysis, the primary outcome was the total of first plus subsequent ischemic events consisting of the composite of cardiovascular death, nonfatal myocardial infarction, nonfatal stroke, coronary revascularization, or hospitalization for unstable angina. […] Exploratory analyses of the total of first and subsequent events were also performed for the key secondary composite endpoint.
Baseline characteristics were compared between treatment groups using the chi-squared test for categorical variables and the Wilcoxon rank sum test for continuous variables. There are several methods for analyzing first and subsequent (recurrent) event data. As a pre-specified statistical method, a negative binomial regression was used to calculate rates and rate ratios for total cardiovascular events, which accounts for the variability in each patient's risk of events. As pre-specified supportive analyses, the modified Wei-Lin-Weissfeld method (Li and Lagakos modification) was used to calculate hazard ratios (HRs) for the time to the first event, second event, or third event. An additional pre-specified analysis, the Andersen-Gill model using a Cox proportional-hazard with the counting-process formulation was performed to model the total events. In addition, in order to account for informative censoring due to cardiovascular death, the HR for total non-fatal events was calculated using a joint frailty model (See Rondeau V. Joint frailty models for recurring events and death using maximum penalized likelihood estimation: application on cancer events. Biostatistics. 2007; 8:708-21). The joint frailty model simultaneously estimates hazard functions for non-fatal and fatal CV events and takes into account the fact that patients who are prone to have nonfatal events have an elevated risk of a cardiovascular death. The application of the joint frailty model used a gamma distribution for the frailty term.
Statistical analyses using the full adjudicated endpoint events dataset without exclusions using this bundling approach were also determined.

[2] = tested on: patients with elevated triglyceride levels on statin therapy; assay: REDUCE-IT endpoints by EPA/AA ratio tertile in the icosapent ethyl group compared to placebo; details: EPA/AA ≤0.373068; on-treatment average of year 1, year 2, last visit
[3] = tested on: patients with elevated triglyceride levels on statin therapy; assay: REDUCE-IT endpoints by pooled (icosapent ethyl and placebo) EPA/AA ratio tertile; details: icosapent ethyl and placebo pooled
From the text: The objective of this study is to assess the effects of administering icosapent ethyl at 4 g per day to patients from the REDUCE-IT trial of Example 1. More specifically, patients from the REDUCE-IT trial of Example 1 were stratified by their EPA levels into one of three tertiles. Following stratification, the objective was to determine if the RRR differs between patients having EPA levels in the three different tertiles. For the data collected as shown in Tables 38-43 and FIGS. 52, 53, and 56-59, the tertiles were established based on data collected from subjects at 1 year, 2 years, and last visit following icosapent ethyl administration compared to placebo. Data are presented as an average of 1 year, 2 year, […], and end of study values. The data was further analyzed use both pooled and unpooled statistically methods.
Placebo and icosapent ethyl treated subjects were pooled and stratified based on EPA/AA tertiles with […], […], and the highest […]

[4] = Andersen-Gill (I) model, adjusted, vs placebo
[5] = Andersen-Gill (I) model, reduced dataset, vs placebo
[6] = Andersen-Gill (I) model, unadjusted, vs placebo
[7] = Andersen-Gill (II) model, adjusted, vs placebo
[8] = Andersen-Gill (II) model, reduced dataset, vs placebo
[9] = Andersen-Gill (II) model, unadjusted, vs placebo
[10] = Joint frailty model, reduced dataset, vs placebo
[11] = Modified WLW model, reduced dataset, vs placebo
[12] = Modified WLW, first event, adjusted, vs placebo
[13] = Modified WLW, first event, unadjusted, vs placebo
[14] = Modified WLW, second event, adjusted, vs placebo
[15] = Modified WLW, second event, unadjusted, vs placebo
[16] = Modified WLW, third event, adjusted, vs placebo
[17] = Modified WLW, third event, unadjusted, vs placebo
[18] = N = 4089, same-day multiple endpoints handled as a single event
[19] = Negative binomial model, adjusted for stratification factors
[20] = Negative binomial model, reduced dataset, vs placebo
[21] = Negative binomial model, unadjusted
[22] = Wei-Lin-Weissfeld model, Example 3
[23] = per 1000 patients treated for five years
[24] = highest >0.395187 vs lowest ≤0.084337
[25] = highest >0.395187 vs middle >0.084337 to ≤0.395187
[26] = middle >0.084337 to ≤0.395187 vs lowest ≤0.084337

In the case of `CC/C=C\C/C=C\C/C=C\C/C=C\C/C=C\CCCC(=O)OCC` [icosapent ethyl, eicosapentaenoic acid ethyl ester], the “HR (95% CI), Key Secondary Composite Endpoint” value [1, 4] is reported as 0.71, the “HR (95% CI), Primary Composite Endpoint” value [1, 4] is reported as 0.68 and the “Adjusted HR, key secondary composite endpoint, total events” value [1, 5] is reported as 0.72. For the same molecule, the “Adjusted HR, primary composite endpoint, total events” value [1, 5] was 0.69, the “Unadjusted HR, key secondary composite endpoint, total events” value [1, 5] was 0.72 and the “Unadjusted HR, primary composite endpoint, total events” value [1, 5] was 0.69. The “HR (95% CI), Key Secondary Composite Endpoint” value [1, 6] was 0.71, the “HR (95% CI), Primary Composite Endpoint” value [1, 6] was 0.68 and the “HR (95% CI), Key Secondary Composite Endpoint” value [1, 7] was 0.71. For the same molecule, the “HR (95% CI), Primary Composite Endpoint” value [1, 7] was 0.68, the “Adjusted HR, key secondary composite endpoint, total events” value [1, 8] was 0.72 and the “Adjusted HR, primary composite endpoint, total events” value [1, 8] was 0.69. For the same molecule, the “Unadjusted HR, key secondary composite endpoint, total events” value [1, 8] was 0.72, the “Unadjusted HR, primary composite endpoint, total events” value [1, 8] was 0.69 and the “HR (95% CI), Key Secondary Composite Endpoint” value [1, 9] was 0.71. The “HR (95% CI), Primary Composite Endpoint” value [1, 9] was 0.68, the “first events, reduction” value ([1]; Example 3) was 25% and the “fourth or more events, reduction” value ([1]; Example 3) was 48%. The “second events, reduction” value ([1]; Example 3) was 32%, the “third events, reduction” value ([1]; Example 3) was 31% and the “HR, Cardiovascular Death, key secondary endpoint, adjusted” value [1, 10] was 0.79. For the same molecule, the “HR, Cardiovascular Death, key secondary endpoint, unadjusted” value [1, 10] was 0.79, the “HR, Cardiovascular Death, primary endpoint, adjusted” value [1, 10] was 0.80 and the “HR, Cardiovascular Death, primary endpoint, unadjusted” value [1, 10] was 0.80. For the same molecule, the “HR, Non-fatal Cardiovascular Event, key secondary endpoint, adjusted” value [1, 10] was 0.68, the “HR, Non-fatal Cardiovascular Event, key secondary endpoint, unadjusted” value [1, 10] was 0.68 and the “HR, Non-fatal Cardiovascular Event, primary endpoint, adjusted” value [1, 10] was 0.67. The “HR, Non-fatal Cardiovascular Event, primary endpoint, unadjusted” value [1, 10] was 0.66, the “Adjusted HR, key secondary composite endpoint, first event” value [1, 11] was 0.74 and the “Adjusted HR, key secondary composite endpoint, second event” value [1, 11] was 0.75. For the same molecule, the “Adjusted HR, key secondary composite endpoint, third event” value [1, 11] was 0.79, the “Adjusted HR, primary composite endpoint, first event” value [1, 11] was 0.75 and the “Adjusted HR, primary composite endpoint, second event” value [1, 11] was 0.68. The “Adjusted HR, primary composite endpoint, third event” value [1, 11] was 0.69, the “Unadjusted HR, key secondary composite endpoint, first event” value [1, 11] was 0.74 and the “Unadjusted HR, key secondary composite endpoint, second event” value [1, 11] was 0.75. For the same molecule, the “Unadjusted HR, key secondary composite endpoint, third event” value [1, 11] was 0.79, the “Unadjusted HR, primary composite endpoint, first event” value [1, 11] was 0.76 and the “Unadjusted HR, primary composite endpoint, second event” value [1, 11] was 0.69. The “Unadjusted HR, primary composite endpoint, third event” value [1, 11] was 0.69, the “HR (95% CI), Key Secondary Composite Endpoint” value [1, 12] was 0.74 and the “HR (95% CI), Primary Composite Endpoint” value [1, 12] was 0.75. The “HR (95% CI), Key Secondary Composite Endpoint” value [1, 13] was 0.74, the “HR (95% CI), Primary Composite Endpoint” value [1, 13] was 0.76 and the “HR (95% CI), Key Secondary Composite Endpoint” value [1, 14] was 0.75. For the same molecule, the “HR (95% CI), Primary Composite Endpoint” value [1, 14] was 0.68, the “HR (95% CI), Key Secondary Composite Endpoint” value [1, 15] was 0.75 and the “HR (95% CI), Primary Composite Endpoint” value [1, 15] was 0.69. The “HR (95% CI), Key Secondary Composite Endpoint” value [1, 16] was 0.79, the “HR (95% CI), Primary Composite Endpoint” value [1, 16] was 0.70 and the “HR (95% CI), Key Secondary Composite Endpoint” value [1, 17] was 0.79. For the same molecule, the “HR (95% CI), Primary Composite Endpoint” value [1, 17] was 0.70, the “Key secondary endpoint: Total events before reduction, % of overall events” value ([1]; N = 4089) was 42.0% and the “Primary endpoint: Total events before reduction, % of overall events” value ([1]; N = 4089) was “(40.7) %”. For the same molecule, the “Key secondary endpoint: Fatal events, % of overall events” value ([1]; N = 4089, after reduction) was 45.0%, the “Key secondary endpoint: Non-fatal events, % of overall events” value ([1]; N = 4089, after reduction) was 40.9% and the “Primary endpoint: Fatal events, % of overall events” value ([1]; N = 4089, after reduction) was “(45.0) %”. The “Primary endpoint: Non-fatal events, % of overall events” value ([1]; N = 4089, after reduction) was “(40.4) %”, the “Key secondary endpoint: Total events after reduction, % of overall events” value [1, 18] was 42.1% and the “Primary endpoint: Total events after reduction, % of overall events” value [1, 18] was “(41.0) %”. The “RR (95% CI), Key Secondary Composite Endpoint, total events” value [1, 19] was 0.71, the “RR (95% CI), Primary Composite Endpoint, total events” value [1, 19] was 0.69 and the “Adjusted RR, key secondary composite endpoint, total events” value [1, 20] was 0.72. For the same molecule, the “Adjusted RR, primary composite endpoint, total events” value [1, 20] was 0.70, the “Unadjusted RR, key secondary composite endpoint, total events” value [1, 20] was 0.71 and the “Unadjusted RR, primary composite endpoint, total events” value [1, 20] was 0.68. For the same molecule, the “RR (95% CI), Key Secondary Composite Endpoint, total events” value [1, 21] was 0.71, the “RR (95% CI), Primary Composite Endpoint, total events” value [1, 21] was 0.67 and the “first occurrence of primary composite endpoint, HR” value [1, 22] was 0.75. For the same molecule, the “second occurrence of primary composite endpoint, HR” value [1, 22] was 0.68, the “total (first and subsequent) ischemic events for primary composite endpoint, relative risk reduction” value ([1]; in vivo) was 30% and the cardiovascular deaths prevented [1, 23] was 12. For the same molecule, the coronary revascularizations prevented [1, 23] was 76, the “episodes of hospitalization for unstable angina prevented” value [1, 23] was 16 and the myocardial infarctions prevented [1, 23] was 42. The strokes prevented [1, 23] was 14, the “total primary endpoint events prevented” value [1, 23] was “approximately 159” and the “total key secondary endpoint event rate” value ([1]; placebo 44) was 32 per 1000 patient years. For the same molecule, the “total (first and subsequent) primary endpoint event rate” value ([1]; placebo 89) was 61 per 1000 patient years, the “total key secondary endpoint events, RR” value ([1]; vs placebo) was 0.72 and the “total primary endpoint events, rate ratio (RR)” value ([1]; vs placebo) was 0.70. For the same molecule, the “HR (95% CI), Primary Endpoint, Lowest EPA/AA ratio tertile vs Placebo” value [2] was 0.83 (0.71, 0.97), the “HR (95% CI), Key Secondary Endpoint, pooled EPA/AA ratio tertiles, Highest vs Lowest” value [3, 24] was 0.57 (0.48,0.68) and the “HR (95% CI), Primary Endpoint, pooled EPA/AA ratio tertiles, Highest vs Lowest” value [3, 24] was 0.64 (0.56, 0.73). For the same molecule, the “HR (95% CI), Key Secondary Endpoint, pooled EPA/AA ratio tertiles, Highest vs Middle” value [3, 25] was 0.75 (0.63, 0.89), the “HR (95% CI), Primary Endpoint, pooled EPA/AA ratio tertiles, Highest vs Middle” value [3, 25] was 0.84 (0.73, 0.96) and the “HR (95% CI), Key Secondary Endpoint, pooled EPA/AA ratio tertiles, Middle vs Lowest” value [3, 26] was 0.76 (0.65, 0.89). For the same molecule, the “HR (95% CI), Primary Endpoint, pooled EPA/AA ratio tertiles, Middle vs Lowest” value [3, 26] was 0.77 (0.67, 0.87).
